Measurements taken from ChEMBL document CHEMBL1123160, “(1-Amino-2-propenyl) phosphonic acid, an inhibitor of alanine racemase and D-alanine:D-alanine ligase” (J Med Chem, 1986).
pKi: −log10 of the molar value.

What was measured:
[1] = tested on: Enterococcus faecalis; experiment: (§1) The compound was tested for the inhibition of D-alanine:D-alanine ligase from streptococcus faecalis
[2] = as §1; set-up: species or system Enterococcus faecalis

C=CC(N)P(=O)(O)O (configuration not stated)
Km [1]: 7 mM | pKi [2]: 2.30
